In US20020137929A1, “1 - (3-heterocyclylphenyl) isothiourea, -isourea, -guanidine and -amidine herbicidal agents” (Intellectual Property Department, BASF Aktiengesellschaft, priority 1998, published 2002):

How the values were obtained:
ABUTH (Velvetleaf) = experiment: Postemergence herbicidal evaluation; assay type: in vivo, Abutilon theophrasti; conditions: postemergence
Method in brief: (§1)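 Herbicidal effect was judged by eye on a 0–9 scale covering stand, vigor, deformity, size and chlorosis, compared with controls, four to five weeks after seedlings about two weeks old were sprayed (40 psi, ~0.0156–0.500 kg/ha).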

AMBEL (Ragweed, Common) [1] = experiment: Postemergence herbicidal evaluation; assay type: in vivo, Ambrosia artemisifolia; conditions: postemergence
Method in brief: as §1

[2] = tested on: CHEAL (Lambsquarters, Common); experiment: Postemergence herbicidal evaluation; assay type: in vivo, Chenopodium album; conditions: postemergence
Method in brief: as §1

ECHCG (Barnyardgrass) = experiment: Postemergence herbicidal evaluation; assay type: in vivo, Echinochloa crus-galli; conditions: postemergence
Method in brief: as §1

[3] = tested on: GLXMAW (Soybean, Williams); experiment: Postemergence herbicidal evaluation; assay type: in vivo, Glycine max, (L.) Merr. cv Williams; conditions: postemergence
Method in brief: as §1

ORYSAT (Rice, Tebonnet) = experiment: Postemergence herbicidal evaluation; assay type: in vivo, Oryza sativa, (L.) Tebonnet; conditions: postemergence
Method in brief: as §1

ZEAMX (Corn, Field) = experiment: Postemergence herbicidal evaluation; assay type: in vivo, Zea mays; conditions: postemergence
Method in brief: as §1

AMBEL (Ragweed, Common) [4] = experiment: Preemergence herbicidal evaluation; assay type: in vivo, Ambrosia artemisifolia; conditions: rated 4-5 weeks after treatment
Method in brief: (§2)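 In this greenhouse assay, monocot and dicot seeds are planted in soil and treated prior to emergence with an aqueous acetone spray (about 0.0156-0.500 kg/ha). Plants are assessed visually against control on a 0-9 scale after 4-5 weeks.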

CASOB (Sicklepod) = experiment: Preemergence herbicidal evaluation; assay type: in vivo, Cassia obtusifolia; conditions: rated 4-5 weeks after treatment
Method in brief: as §2

[5] = tested on: CHEAL (Lambsquarters, Common); experiment: Preemergence herbicidal evaluation; assay type: in vivo, Chenopodium album; conditions: rated 4-5 weeks after treatment
Method in brief: as §2

GALAP (Galium) = experiment: Preemergence herbicidal evaluation; assay type: in vivo, Galium aparine; conditions: rated 4-5 weeks after treatment
Method in brief: as §2

CYPSE (Flatsedge) [6] = experiment: Preemergence weed control under flooded paddy conditions; assay type: in vivo, Cyperus serotinus; conditions: rated 3-4 weeks after treatment
Method in brief: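 Flooded-pot preemergence screen with silt loam and seeds in the upper 0.5 cm. Dose about 0.0313 to 0.500 kg/ha, delivered into flood water; visual 0-9 score after 3 to 4 weeks.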

CYPIR (Rice Flatsedge) = experiment: Postemergence weed control under flooded paddy conditions; assay type: in vivo, Cyperus iria; conditions: postemergence weeds, rated 3 to 4 weeks after treatment
Method in brief: (§3)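 Containers holding 3–5 cm weeds and rice at 1.5–2.5 leaves are flooded to 1.5–3 cm above soil. Compound in 50/50 v/v aqueous/acetone is then added directly to the water, about 0.0313–0.500 kg/ha. Plants are kept in the greenhouse and rated 0–9 visually at 3–4 weeks.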

CYPSE (Flatsedge) [7] = experiment: as above; assay type: in vivo, Cyperus serotinus; conditions: postemergence weeds, rated 3 to 4 weeks after treatment
Method in brief: as §3

C[C@H](C(=O)O)N1C(=O)CSC1=Nc1cc(-n2c(=O)cc(C(F)(F)F)n(C)c2=O)c(F)cc1Cl [Compound 70, 2-{{2-Chloro-5-[3,6-dihydro-3-methyl-2,6-dioxo-4-(trifluoromethyl)-1(2H)-pyrimidinyl]-4-fluoro-phenyl}imino}-α-methyl-4-oxo-3-thiazolidineacetic acid, D-]
ABUTH herbicidal rating (ABUTH (Velvetleaf); rate 0.0158 kg/ha): 1.0 | ABUTH herbicidal rating (ABUTH (Velvetleaf); rate 0.0315 kg/ha): 6.0 | ABUTH herbicidal rating (ABUTH (Velvetleaf); rate 0.0630 kg/ha): 9.0 | AMBEL herbicidal rating (AMBEL (Ragweed, Common) [1]; rate 0.0158 kg/ha): 6.0 | AMBEL herbicidal rating (AMBEL (Ragweed, Common) [1]; rate 0.0315 kg/ha): 6.0 | AMBEL herbicidal rating (AMBEL (Ragweed, Common) [1]; rate 0.0630 kg/ha): 7.0 | CHEAL herbicidal rating ([2]; rate 0.0158 kg/ha): 4.0 | CHEAL herbicidal rating ([2]; rate 0.0315 kg/ha): 9.0 | ECHCG herbicidal rating (ECHCG (Barnyardgrass); rate 0.0158 kg/ha): 0.0 | ECHCG herbicidal rating (ECHCG (Barnyardgrass); rate 0.0315 kg/ha): 2.0 | ECHCG herbicidal rating (ECHCG (Barnyardgrass); rate 0.0630 kg/ha): 9.0 | GLXMAW herbicidal rating ([3]; rate 0.0158 kg/ha): 4.5 | GLXMAW herbicidal rating ([3]; rate 0.0315 kg/ha): 5.5 | GLXMAW herbicidal rating ([3]; rate 0.0630 kg/ha): 7.0 | ORYSAT herbicidal rating (ORYSAT (Rice, Tebonnet); rate 0.0158 kg/ha): 2.5 | ORYSAT herbicidal rating (ORYSAT (Rice, Tebonnet); rate 0.0315 kg/ha): 3.5 | ORYSAT herbicidal rating (ORYSAT (Rice, Tebonnet); rate 0.0630 kg/ha): 5.0 | ZEAMX herbicidal rating (ZEAMX (Corn, Field); rate 0.0158 kg/ha): 4.0 | ZEAMX herbicidal rating (ZEAMX (Corn, Field); rate 0.0315 kg/ha): 5.5 | ZEAMX herbicidal rating (ZEAMX (Corn, Field); rate 0.0630 kg/ha): 7.0 | Preemergence herbicidal rating AMBEL (AMBEL (Ragweed, Common) [4]; rate 0.0156 kg/ha): 0.0 | Preemergence herbicidal rating AMBEL (AMBEL (Ragweed, Common) [4]; rate 0.0313 kg/ha): 0.0 | Preemergence herbicidal rating AMBEL (AMBEL (Ragweed, Common) [4]; rate 0.0625 kg/ha): 0.0 | Preemergence herbicidal rating AMBEL (AMBEL (Ragweed, Common) [4]; rate 0.1250 kg/ha): 3.0 | Preemergence herbicidal rating AMBEL (AMBEL (Ragweed, Common) [4]; rate 0.2500 kg/ha): 9.0 | Preemergence herbicidal rating CASOB (CASOB (Sicklepod); rate 0.0156 kg/ha): 0.0 | Preemergence herbicidal rating CASOB (CASOB (Sicklepod); rate 0.0313 kg/ha): 0.0 | Preemergence herbicidal rating CASOB (CASOB (Sicklepod); rate 0.0625 kg/ha): 0.0 | Preemergence herbicidal rating CASOB (CASOB (Sicklepod); rate 0.1250 kg/ha): 1.0 | Preemergence herbicidal rating CASOB (CASOB (Sicklepod); rate 0.2500 kg/ha): 0.0 | Preemergence herbicidal rating CHEAL ([5]; rate 0.0156 kg/ha): 2.0 | Preemergence herbicidal rating CHEAL ([5]; rate 0.0313 kg/ha): 9.0 | Preemergence herbicidal rating CHEAL ([5]; rate 0.0625 kg/ha): 9.0 | Preemergence herbicidal rating CHEAL ([5]; rate 0.1250 kg/ha): 9.0 | Preemergence herbicidal rating CHEAL ([5]; rate 0.2500 kg/ha): 9.0 | Preemergence herbicidal rating GALAP (GALAP (Galium); rate 0.0156 kg/ha): 0.0 | Preemergence herbicidal rating GALAP (GALAP (Galium); rate 0.0313 kg/ha): 0.0 | Preemergence herbicidal rating GALAP (GALAP (Galium); rate 0.0625 kg/ha): 0.0 | Preemergence herbicidal rating GALAP (GALAP (Galium); rate 0.1250 kg/ha): 0.0 | Preemergence herbicidal rating GALAP (GALAP (Galium); rate 0.2500 kg/ha): 0.0 | CYPSE herbicidal effect rating (CYPSE (Flatsedge) [6]; 0.0313 kg/ha): 0.0 | CYPSE herbicidal effect rating (CYPSE (Flatsedge) [6]; 0.0625 kg/ha): 0.0 | CYPSE herbicidal effect rating (CYPSE (Flatsedge) [6]; 0.1250 kg/ha): 0.0 | CYPSE herbicidal effect rating (CYPSE (Flatsedge) [6]; 0.2500 kg/ha): 3.0 | Herbicidal rating CYPIR (CYPIR (Rice Flatsedge); Rate 0.0313 kg/ha): 0.0 | Herbicidal rating CYPIR (CYPIR (Rice Flatsedge); Rate 0.0625 kg/ha): 2.0 | Herbicidal rating CYPIR (CYPIR (Rice Flatsedge); Rate 0.1250 kg/ha): 2.0 | Herbicidal rating CYPIR (CYPIR (Rice Flatsedge); Rate 0.2500 kg/ha): 2.0 | Herbicidal rating CYPSE (CYPSE (Flatsedge) [7]; Rate 0.0313 kg/ha): 0.0 | Herbicidal rating CYPSE (CYPSE (Flatsedge) [7]; Rate 0.0625 kg/ha): 0.0 | Herbicidal rating CYPSE (CYPSE (Flatsedge) [7]; Rate 0.1250 kg/ha): 0.0 | Herbicidal rating CYPSE (CYPSE (Flatsedge) [7]; Rate 0.2500 kg/ha): 3.0
